Among the data in article PMC4243055 (Cell, 2014) are Ki values, retold here.

For orientation: Ki means the dissociation constant of the complex between target and ligand, obtained from inhibition or displacement.

The target of this experiment is T1, Cdc25 phosphatase (CnCdc25) (Cryptococcus neoformans, UniProt J9VTJ5).
T1 sequence (J9VTJ5 442-662): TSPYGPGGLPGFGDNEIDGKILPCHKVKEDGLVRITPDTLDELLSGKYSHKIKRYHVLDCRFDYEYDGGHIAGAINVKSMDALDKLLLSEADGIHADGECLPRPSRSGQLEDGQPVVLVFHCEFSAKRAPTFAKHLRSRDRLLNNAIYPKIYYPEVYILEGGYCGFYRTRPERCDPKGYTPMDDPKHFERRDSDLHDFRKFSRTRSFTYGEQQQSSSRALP
Briefly: in vitro phosphatase assay with OMFP substrate, Michaelis-Menten kinetics. In kind it is biochemical.

Regarding `O=C1C(NCCN2CCOCC2)=C(Cl)C(=O)c2ncccc21` [NSC 663284, 7-Chloro-6-(2-morpholin-4-ylethylamino)-quinoline-5,8-dione], the Ki is ~250 µM.
